{"source": "patent US10851115B2", "about": "“Heterocyclic compounds as RSV inhibitors” (Enanta Pharmaceuticals, Inc., priority 2017, dated 2020)", "note": "pEC50: −log10 of the molar value.", "data": [{"system": "Human RSV-A (“Long” strain)", "experiment": "RSV in vitro cytoprotection assay in HEp-2 cells (ATPlite readout)", "type": "cell-based", "conditions": "human respiratory syncytial virus, 96 h; HEp-2 cells, 4-day incubation, ATPlite; read-out: Human RSV-A (“Long” strain) EC50", "outline": "(§1)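 HEp-2 cells (8,000/well) given 2-fold compound dilutions in duplicate, then infected with RSV-A Long stock; 4-day incubation. Cell viability read by ATPlite luminescence (ATP), with parallel uninfected plate for cytotoxicity; EC50 from protection against CPE.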", "values": [{"compound": "Cc1cnc(N2CC3(CCOCC3)C2)c(C(=O)Nc2ccc(C(=O)N3CCc4cc(C(=O)Nc5c(F)cccc5Cl)oc4-c4cccnc43)cc2)c1", "note": "[Example 113]", "pEC50": "< 7.30"}, {"compound": "Cc1cnc(N2CC3(CCOCC3)C2)c(C(=O)Nc2ccc(C(=O)N3CCc4cc(-c5nc6ccccc6[nH]5)oc4-c4cccnc43)cc2)c1", "note": "[Example 114]", "pEC50": "< 7.30"}, {"compound": "Cc1cnc(N2CC3(CCOCC3)C2)c(C(=O)Nc2ccc(C(=O)N3CCc4cc(C(=O)Nc5c(F)cccc5F)oc4-c4ncccc43)cc2)c1", "note": "[Example 115]", "pEC50": "7.30 to 8.00"}, {"compound": "Cc1cnc(N2CC3(CCOCC3)C2)c(C(=O)Nc2ccc(C(=O)N3CCc4cc(C(=O)Nc5c(F)cccc5Cl)oc4-c4ncccc43)cc2)c1", "note": "[Example 117]", "pEC50": "7.30 to 8.00"}, {"compound": "Cc1cnc(N2CC3(CCOCC3)C2)c(C(=O)Nc2ccc(C(=O)N3CCc4cc(-c5nc6ccccc6[nH]5)oc4-c4ncccc43)cc2)c1", "note": "[Example 118]", "pEC50": "7.30 to 8.00"}, {"compound": "O=C(Nc1c(F)cccc1F)c1cc2c(o1)-c1ncccc1N(C(=O)c1ccc(NC(=O)c3cc4c(nc3N3CC5(CCOCC5)C3)CCC4)cc1)CC2", "note": "[Example 119]", "pEC50": "> 8.00"}, {"compound": "O=C(Nc1ccc(C(=O)N2CCc3cc(-c4nc5ccccc5[nH]4)oc3-c3ncccc32)cc1)c1cc2c(nc1N1CC3(CCOCC3)C1)CCC2", "note": "[Example 120]", "pEC50": "7.30 to 8.00"}, {"compound": "Cc1cnc(N2CC3(CCOCC3)C2)c(C(=O)Nc2ccc(C(=O)N3CCc4cc(C(=O)Nc5c(F)cccc5F)oc4-c4ccncc43)cc2)c1", "note": "[Example 121]", "pEC50": "7.30 to 8.00"}, {"compound": "Cc1cnc(N2CC3(CCOCC3)C2)c(C(=O)Nc2ccc(C(=O)N3CCc4cc(C(=O)Nc5c(F)cc(F)cc5F)oc4-c4ccncc43)cc2)c1", "note": "[Example 122]", "pEC50": "< 7.30"}, {"compound": "Cc1cnc(N2CC3(CCOCC3)C2)c(C(=O)Nc2ccc(C(=O)N3CCc4cc(C(=O)Nc5c(C)cccc5F)oc4-c4ccncc43)cc2)c1", "note": "[Example 123]", "pEC50": "< 7.30"}, {"compound": "Cc1cnc(N2CC3(CCOCC3)C2)c(C(=O)Nc2ccc(C(=O)N3CCc4cc(-c5nc6ccccc6[nH]5)oc4-c4ccncc43)cc2)c1", "note": "[Example 124]", "pEC50": "< 7.30"}, {"compound": "Cc1cnc(N2CC3(CCOCC3)C2)c(C(=O)Nc2ccc(C(=O)N3CCc4cc(C(=O)Nc5c(F)cccc5Cl)oc4-c4ccncc43)cc2)c1", "note": "[Example 125]", "pEC50": "7.30 to 8.00"}, {"compound": "Cc1cnc(N2CC3(CCOCC3)C2)c(C(=O)Nc2ccc(C(=O)N3CCc4cc(C(=O)Nc5c(F)cccc5C(F)(F)F)oc4-c4ccncc43)cc2)c1", "note": "[Example 126]", "pEC50": "< 7.30"}, {"compound": "Cc1cnc(N2CC3(CCOCC3)C2)c(C(=O)Nc2ccc(C(=O)N3CCc4cc(-c5nc6cccc(F)c6[nH]5)oc4-c4ccncc43)cc2)c1", "note": "[Example 127]", "pEC50": "< 7.30"}, {"compound": "Cc1cnc(N2CC3(CCOCC3)C2)c(C(=O)Nc2ccc(C(=O)N3CCc4cc(C(=O)Nc5c(F)cccc5F)sc4-c4cc(C)sc43)cc2)c1", "note": "[Example 128]", "pEC50": "7.30 to 8.00"}, {"compound": "Cc1cnc(N2CC3(CCOCC3)C2)c(C(=O)Nc2ccc(C(=O)N3CCc4cc(C(=O)Nc5c(F)cc(F)cc5F)sc4-c4cc(C)sc43)cc2)c1", "note": "[Example 129]", "pEC50": "< 7.30"}, {"compound": "Cc1cnc(N2CC3(CCOCC3)C2)c(C(=O)Nc2ccc(C(=O)N3CCc4cc(C(=O)Nc5c(Cl)cccc5Cl)sc4-c4cc(C)sc43)cc2)c1", "note": "[Example 130]", "pEC50": "< 7.30"}, {"compound": "Cc1cnc(N2CC3(CCOCC3)C2)c(C(=O)Nc2ccc(C(=O)N3CCc4cc(-c5nc6cccc(F)c6[nH]5)sc4-c4cc(C)sc43)cc2)c1", "note": "[Example 131]", "pEC50": "7.30 to 8.00"}, {"compound": "Cc1cnc(N2CC3(CCOCC3)C2)c(C(=O)Nc2ccc(C(=O)N3CCc4cc(-c5nc6ccccc6[nH]5)sc4-c4cc(C)sc43)cc2)c1", "note": "[Example 132]", "pEC50": "7.30 to 8.00"}, {"compound": "Cc1cnc(N2CC3(CCOCC3)C2)c(C(=O)Nc2ccc(C(=O)N3CCc4cc(C(=O)Nc5c(F)cccc5F)sc4-c4ncc(C)cc43)cc2)c1", "note": "[Example 133]", "pEC50": "> 8.00"}, {"compound": "Cc1cnc(N2CC3(CCOCC3)C2)c(C(=O)Nc2ccc(C(=O)N3CCc4cc(C(=O)Nc5c(C)cccc5F)sc4-c4ncc(C)cc43)cc2)c1", "note": "[Example 134]", "pEC50": "> 8.00"}, {"compound": "Cc1cnc(N2CC3(CCOCC3)C2)c(C(=O)Nc2ccc(C(=O)N3CCc4cc(C(=O)Nc5c(F)cccc5Cl)sc4-c4ncc(C)cc43)cc2)c1", "note": "[Example 136]", "pEC50": "> 8.00"}, {"compound": "Cc1cnc(N2CC3(CCOCC3)C2)c(C(=O)Nc2ccc(C(=O)N3CCc4cc(-c5nc6ccccc6[nH]5)sc4-c4ncc(C)cc43)cc2)c1", "note": "[Example 137]", "pEC50": "> 8.00"}, {"compound": "Cc1cnc(N2CC3(CCOCC3)C2)c(C(=O)Nc2ccc(C(=O)N3CCc4cc(C(=O)Nc5c(F)cccc5F)sc4-c4nc(C)ccc43)cc2)c1", "note": "[Example 138]", "pEC50": "7.30 to 8.00"}, {"compound": "Cc1cnc(N2CC3(CCOCC3)C2)c(C(=O)Nc2ccc(C(=O)N3CCc4cc(C(=O)Nc5c(C)cccc5F)sc4-c4nc(C)ccc43)cc2)c1", "note": "[Example 139]", "pEC50": "7.30 to 8.00"}, {"compound": "Cc1cnc(N2CC3(CCOCC3)C2)c(C(=O)Nc2ccc(C(=O)N3CCc4cc(C(=O)Nc5ncccc5F)sc4-c4nc(C)ccc43)cc2)c1", "note": "[Example 140]", "pEC50": "7.30 to 8.00"}, {"compound": "Cc1cnc(N2CC3(CCOCC3)C2)c(C(=O)Nc2ccc(C(=O)N3CCc4cc(C(=O)Nc5c(C)cccc5C#N)sc4-c4nc(C)ccc43)cc2)c1", "note": "[Example 141]", "pEC50": "< 7.30"}, {"compound": "Cc1cnc(N2CC3(CCOCC3)C2)c(C(=O)Nc2ccc(C(=O)N3CCc4cc(C(=O)Nc5c(F)cccc5Cl)sc4-c4nc(C)ccc43)cc2)c1", "note": "[Example 142]", "pEC50": "7.30 to 8.00"}, {"compound": "Cc1cnc(N2CC3(CCOCC3)C2)c(C(=O)Nc2ccc(C(=O)N3CCc4cc(C(=O)Nc5c(F)cccc5C(F)(F)F)sc4-c4nc(C)ccc43)cc2)c1", "note": "[Example 143]", "pEC50": "< 7.30"}, {"compound": "Cc1ccc2c(n1)-c1sc(C(=O)Nc3c(F)cccc3F)cc1CCN2C(=O)c1ccc(NC(=O)c2ccc(C)nc2N2CC3(CCOCC3)C2)cc1", "note": "[Example 144]", "pEC50": "7.30 to 8.00"}, {"compound": "Cc1ccc2c(n1)-c1sc(C(=O)Nc3c(C)cccc3F)cc1CCN2C(=O)c1ccc(NC(=O)c2ccc(C)nc2N2CC3(CCOCC3)C2)cc1", "note": "[Example 145]", "pEC50": "< 7.30"}, {"compound": "Cc1ccc2c(n1)-c1sc(C(=O)Nc3ncccc3F)cc1CCN2C(=O)c1ccc(NC(=O)c2ccc(C)nc2N2CC3(CCOCC3)C2)cc1", "note": "[Example 146]", "pEC50": "7.30 to 8.00"}, {"compound": "Cc1ccc2c(n1)-c1sc(C(=O)Nc3c(C)cccc3C#N)cc1CCN2C(=O)c1ccc(NC(=O)c2ccc(C)nc2N2CC3(CCOCC3)C2)cc1", "note": "[Example 147]", "pEC50": "< 7.30"}, {"compound": "Cc1ccc2c(n1)-c1sc(C(=O)Nc3c(F)cccc3Cl)cc1CCN2C(=O)c1ccc(NC(=O)c2ccc(C)nc2N2CC3(CCOCC3)C2)cc1", "note": "[Example 148]", "pEC50": "< 7.30"}, {"compound": "Cc1ccc2c(n1)-c1sc(C(=O)Nc3c(F)cccc3C(F)(F)F)cc1CCN2C(=O)c1ccc(NC(=O)c2ccc(C)nc2N2CC3(CCOCC3)C2)cc1", "note": "[Example 149]", "pEC50": "< 7.30"}, {"compound": "Cc1cnc(N2CC3(CCOCC3)C2)c(C(=O)Nc2ccc(C(=O)N3CCc4cc(NC(=O)c5c(F)cccc5F)sc4-c4ncccc43)cc2)c1", "note": "[Example 151]", "pEC50": "> 8.00"}, {"compound": "Cc1cnc(N2CC3(CCOCC3)C2)c(C(=O)Nc2ccc(C(=O)N3CCc4cc(NC(=O)c5c(C)cccc5F)sc4-c4ncccc43)cc2)c1", "note": "[Example 152]", "pEC50": "> 8.00"}, {"compound": "Cc1cnc(N2CC3(CCOCC3)C2)c(C(=O)Nc2ccc(C(=O)N3CCc4cc(NC(=O)c5c(F)cccc5Cl)sc4-c4ncccc43)cc2)c1", "note": "[Example 153]", "pEC50": "> 8.00"}, {"compound": "Cc1cnc(N2CC3(CCOCC3)C2)c(C(=O)Nc2ccc(C(=O)N3CCc4cc(NC(=O)c5ncccc5F)sc4-c4ncccc43)cc2)c1", "note": "[Example 154]", "pEC50": "> 8.00"}, {"compound": "Cc1cnc(N2CC3(CCOCC3)C2)c(C(=O)Nc2ccc(C(=O)N3CCc4cc(NC(=O)c5ccccc5)sc4-c4ncccc43)cc2)c1", "note": "[Example 155]", "pEC50": "> 8.00"}, {"compound": "Cc1cnc(N2CC3(CCOCC3)C2)c(C(=O)Nc2ccc(C(=O)N3CCc4cc(NC(=O)c5ccccc5F)sc4-c4ncccc43)cc2)c1", "note": "[Example 156]", "pEC50": "> 8.00"}, {"compound": "Cc1ccc(C(=O)Nc2ccc(C(=O)N3CCc4cc(NC(=O)c5c(F)cccc5F)sc4-c4ncccc43)cc2)c(N2CC3(CCOCC3)C2)n1", "note": "[Example 157]", "pEC50": "> 8.00"}, {"compound": "Cc1ccc(C(=O)Nc2ccc(C(=O)N3CCc4cc(NC(=O)c5c(C)cccc5F)sc4-c4ncccc43)cc2)c(N2CC3(CCOCC3)C2)n1", "note": "[Example 158]", "pEC50": "7.30 to 8.00"}, {"compound": "Cc1ccc(C(=O)Nc2ccc(C(=O)N3CCc4cc(NC(=O)c5c(F)cccc5Cl)sc4-c4ncccc43)cc2)c(N2CC3(CCOCC3)C2)n1", "note": "[Example 159]", "pEC50": "7.30 to 8.00"}, {"compound": "Cc1ccc(C(=O)Nc2ccc(C(=O)N3CCc4cc(NC(=O)c5ccccc5F)sc4-c4ncccc43)cc2)c(N2CC3(CCOCC3)C2)n1", "note": "[Example 160]", "pEC50": "> 8.00"}, {"compound": "Cc1cnc2c(c1)N(C(=O)c1ccc(NC(=O)c3cccnc3N3CC4(CCOCC4)C3)cc1)CCc1cc(C(=O)Nc3c(C)cccc3F)sc1-2", "note": "[Example 161]", "pEC50": "> 8.00"}, {"compound": "Cc1cnc2c(c1)N(C(=O)c1ccc(NC(=O)c3cccnc3N3CC4(CCOCC4)C3)cc1)CCc1cc(C(=O)Nc3c(F)cccc3Cl)sc1-2", "note": "[Example 162]", "pEC50": "> 8.00"}, {"compound": "Cc1cnc2c(c1)N(C(=O)c1ccc(NC(=O)c3cccnc3N3CC4(CCOCC4)C3)cc1)CCc1cc(C(=O)Nc3c(F)cccc3F)sc1-2", "note": "[Example 164]", "pEC50": "> 8.00"}]}, {"system": "Human RSV-A (“Long” strain)", "experiment": "RSV in vitro cytoprotection assay in HEp-2 cells (ATPlite readout)", "type": "cell-based", "conditions": "human respiratory syncytial virus, HEp-2", "outline": "as §1", "values": [{"compound": "O=C(Nc1ccccc1F)N[C@H]1N=C(c2ccccc2)c2ccccc2NC1=O", "note": "[RSV-604, reference compound]", "pEC50": "~5.62"}]}]}
